We go through 37 compounds from patent publication US20130296311A1, “INHIBITORS OF HCV NS5A” (PRESIDIO PHARMACEUTICALS, INC., priority 2010, published 2013).

Some results are limits rather than exact numbers.

For the first test, the system named is HCV 1b_Huh-Luc/Neo-ET cell line persistently expressing a bicistronic genotype 1b replicon in Huh 7 cells. Briefly: HCV replicon assay (luciferase readout, 72 h). In kind it is cell-based, HCV genotype 1b. Particulars: Hepatitis C virus, Huh-7, 72 h, read-out: Inhibition of HCV genotype 1b. As to the method:
Biological activity of the compounds of the invention was determined using an HCV replicon assay. The HCV 1b_Huh-Luc/Neo-ET cell line persistently expressing a bicistronic genotype 1b replicon in Huh 7 cells was obtained from ReBLikon GMBH. This cell line was used to test compound inhibition using luciferase enzyme activity readout as a measurement of compound inhibition of replicon levels.
On Day 1 (the day after plating), each compound is added in triplicate to the cells. Plates incubated for 72 h prior to running the luciferase assay. Enzyme activity was measured using a Bright-Glo Kit (cat. number E2620) manufactured by Promega Corporation. The following equation was used to generate a percent control value for each compound.
% Control=(Average Compound Value/Average Control)*100
The EC50 value was determined using GraphPad Prism and the following equation:
Y=Bottom+(Top-Bottom)/(1+10̂((LogIC50−X)*HillSlope))
EC50 values of compounds are determined several times in the replicon assay.
Example compounds of the disclosed invention are illustrated in Tables 1-16 attached as appendices. The tables show inhibitory activity of many of the example compounds with respect to HCV 1b. […] The tables further provide mass spectrometry results for the synthesized example compounds.
As to `C[C@H](NC(=O)[C@@H]1CCCN1C(=O)[C@H](NC(=O)OC(C)(C)C)c1ccccc1)c1ccc(C#Cc2cnc([C@@H]3CCCN3C(=O)[C@H](NC(=O)OC(C)(C)C)c3ccccc3)[nH]2)cc1` [Compound 130], the EC50 lay in the range of 10 to 999 nM. Still for that read-out and setting: as for `COC(=O)N[C@H](C(=O)N1CCC[C@H]1c1ncc(-c2ccc(C#Cc3ccc4nc([C@@H]5CCCN5)[nH]c4c3)cc2)[nH]1)C(C)C` [Compound 1056], the figure is 10 to 999 nM; as for `CC(C)[C@@H](NC(=O)OC(C)(C)C)C(=O)N1CCC[C@H]1c1ncc(C#Cc2ccc(-c3cnc([C@@H]4CCCN4C(=O)[C@H](NC(=O)OC(C)(C)C)C(C)C)[nH]3)cc2)[nH]1` [Compound 105], 10 to 999 nM; as for `COC(=O)N[C@H](C(=O)N1CCC[C@H]1c1ncc(-c2ccc(C#Cc3ccc(-c4cnc([C@@H]5CCCN5C(=O)[C@H](NC(=O)N5CC[C@H](O)C5)c5ccccc5)[nH]4)cc3)cc2)[nH]1)C(C)C` [Compound 974], < 1 nM.

With `C[C@H](NC(=O)[C@H](NC(=O)OC(C)(C)C)c1ccccc1)c1ncc(-c2ccc(C#Cc3ccc(-c4cnc([C@@H]5CCCN5C(=O)[C@H](NC(=O)OC(C)(C)C)c5ccccc5)[nH]4)cc3)cc2)[nH]1` [Compound 280], the EC50 was < 1 nM.

Take `O=C(N[C@@H](C(=O)N1CCC[C@H]1c1nc(-c2ccc3cc(C#Cc4cnc([C@@H]5CCCN5C(=O)[C@H](NC(=O)N5CC[C@@H](O)C5)c5ccccc5)[nH]4)ccc3c2)c[nH]1)c1ccccc1)N1CC[C@@H](O)C1` [Compound 807]: the EC50 lay within 1 to 9.9 nM. Same read-out and setting: as for `COC(=O)N[C@@H](C(=O)N1CCC[C@H]1c1ncc(C#Cc2ccc(C#Cc3cnc([C@@H]4CCCN4C(=O)[C@H](NC(=O)OC)c4ccccc4)[nH]3)cc2)[nH]1)c1ccccc1` [Compound 304], the figure is < 1 nM; as for `COC(=O)N[C@@H](C(=O)N1CCC[C@H]1C(=O)Nc1ccc(C#Cc2ccc(-c3cnc([C@@H]4CCCN4C(=O)[C@H](NC(=O)OC)c4ccccc4)[nH]3)cc2)cc1)c1ccccc1` [Compound 171], < 1 nM; as for `COC(=O)N[C@H](C(=O)N1CCC[C@H]1c1ncc(-c2ccc(C#Cc3ccc(-c4cnc([C@@H]5CCCN5C(=O)[C@@H](c5ccccc5)N5CCOC5=O)[nH]4)cc3)cc2)[nH]1)C(C)C` [Compound 1007], < 1 nM. Still for that read-out and setting: in the case of `COC(=O)N[C@@H](C(=O)N1CCC[C@H]1c1ncc(-c2ccc(C#Cc3ccc(-c4cnc([C@@H]5CCCN5C(=O)OCc5ccccc5)[nH]4)cc3)cc2)[nH]1)c1ccccc1` [Compound 200] it was < 1 nM; in that of `COC(=O)N[C@H](C(=O)N1CCC[C@H]1c1ncc(-c2cc(C)c(C#Cc3ccc4nc([C@@H]5CCCN5C(=O)[C@@H](NC(=O)OC)C(C)C)[nH]c4c3)c(C)c2)[nH]1)C(C)C` [Compound 1060], < 1 nM; in that of `CC(C)[C@@H](NC(=O)N1CCCC1)C(=O)N1CCC[C@H]1c1ncc(-c2ccc(C#Cc3ccc(-c4cnc([C@@H]5CCCN5C(=O)[C@H](NC(=O)N5CCCC5)C(C)C)[nH]4)cc3)cc2)[nH]1` [Compound 293], > 1000 nM. With `COC(=O)NC(C(=O)N1CCC[C@H]1c1nc2ccc(C#Cc3ccc4cc(-c5cnc([C@@H]6CCCN6C(=O)[C@@H](NC(=O)OC)C(C)C)[nH]5)ccc4n3)cc2[nH]1)C(C)C` (stereo partly shown) [Compound 1107], the EC50 is < 1 nM.

As to `COC(=O)N[C@@H](C(=O)N1CCC[C@H]1c1ncc(C#Cc2ccc(-c3cnc([C@@H]4CCCN4C(=O)[C@H](NC(=O)OC)c4ccccc4)[nH]3)cc2)[nH]1)c1ccccc1` [Compound 110], the EC50 was < 1 nM.

Turning to `O=C([C@@H](c1ccccc1)N1CCCCC1)N1CCC[C@H]1c1ncc(-c2ccc(C#Cc3ccc(-c4cnc([C@@H]5CCCN5C(=O)[C@@H](c5ccccc5)N5CCCCC5)[nH]4)cc3)cc2)[nH]1` [Compound 205], the EC50 is < 1 nM.

As to `O=C(N[C@@H](C(=O)N1CCC[C@H]1c1nc(-c2ccc3cc(C#Cc4cnc([C@@H]5CCCN5C(=O)[C@H](NC(=O)C5CC5)c5ccccc5)[nH]4)ccc3c2)c[nH]1)c1ccccc1)C1CC1` [Compound 804], the EC50 was < 1 nM. The same measure, in the same setting: in the case of `COC(=O)N[C@H](C(=O)N1CCC[C@H]1c1nc2c([nH]1)-c1ccc(C#Cc3ccc4nc([C@@H]5CCCN5C(=O)[C@@H](NC(=O)OC)C5CCOCC5)[nH]c4c3)cc1CC2)C(C)C` [Compound 1102] it was < 1 nM. The same measure, in the same setting: in the case of `COC(=O)N[C@H](C(=O)N1CCC[C@H]1c1ncc(-c2ccc(C#Cc3ccc4nc([C@@H]5CCCN5C(=O)[C@@H](C(C)C)N(C)C)[nH]c4c3)cc2)[nH]1)C(C)C` [Compound 1020] it was < 1 nM; in that of `CC(C)(C)OC(=O)N1CCCC1c1ncc(-c2ccc(C#Cc3ccc4nc([C@@H]5CCCN5C(=O)OC(C)(C)C)[nH]c4c3)cc2)[nH]1` (stereo partly shown) [Compound 1034], 1 to 9.9 nM. As for `C[C@@H](NC(=O)[C@@H]1CCCN1C(=O)[C@H](NC(=O)OC(C)(C)C)c1ccccc1)c1ccc(C#Cc2cnc([C@@H]3CCCN3C(=O)[C@H](NC(=O)OC(C)(C)C)c3ccccc3)[nH]2)cc1` [Compound 129], the EC50 fell in the range of 10 to 999 nM.

As to `O=C(N[C@@H](C(=O)N1CCC[C@H]1c1ncc(-c2ccc(C#Cc3ccc(-c4cnc([C@@H]5CCCN5C(=O)[C@@H](c5ccccc5)N5CCCC5)[nH]4)cc3)cc2)[nH]1)c1ccccc1)C1CC1` [Compound 217], the EC50 was < 1 nM. Still for that read-out and setting: as for `COC(=O)N[C@H](CC(=O)N1CCC[C@H]1c1ncc(-c2ccc(C#Cc3ccc4nc([C@@H]5CCCN5C(=O)C[C@@H](NC(=O)OC)C(C)C)[nH]c4c3)cc2)[nH]1)C(C)C` [Compound 1065], the figure is 10 to 999 nM; as for `COC(=O)N[C@H](C(=O)N1CCC[C@H]1c1ncc(-c2ccc(C#Cc3ccc4nc([C@@H]5CCCN5C(=O)[C@H](NC(=O)OC)C(C)C)[nH]c4c3)cc2)[nH]1)C(C)C` [Compound 1054], < 1 nM; as for `CC(C)[C@@H](NC(=O)C1CC1)C(=O)N1CCC[C@H]1C(=O)NCCc1ccc(C#Cc2cnc([C@@H]3CCCN3C(=O)[C@H](NC(=O)C3CC3)C(C)C)[nH]2)cc1` [Compound 127], 10 to 999 nM. As to `COC(=O)N[C@@H](C(=O)N1CCC[C@H]1c1ncc(-c2ccc(C#Cc3ccc4nc([C@@H]5CCCN5C(=O)[C@H](NC(=O)OC)C(C)C)[nH]c4c3)cc2)[nH]1)C(C)C` [Compound 861], the EC50 was 10 to 999 nM.

In the case of `O=C(N[C@@H](C(=O)N1CCC[C@H]1C(=O)NCCc1ccc(C#Cc2cnc([C@@H]3CCCN3C(=O)[C@H](NC(=O)C3CC3)c3ccccc3)[nH]2)cc1)c1ccccc1)C1CC1` [Compound 125], the EC50 was < 1 nM. Same read-out and setting: as for `COC(=O)N[C@H](C(=O)N1CCC[C@H]1c1nc(-c2ccc3cc(C#Cc4[nH]c([C@@H]5CCCN5C(=O)[C@@H](NC(=O)OC)C(C)C)nc4C)ccc3c2)c[nH]1)C(C)C` [Compound 1081], the figure is < 1 nM; as for `COC(=O)N[C@H](C(=O)N[C@@H](C)c1ncc(-c2ccc(C#Cc3ccc(-c4cnc([C@@H]5CCCN5C(=O)[C@@H](NC(=O)OC)[C@@H](C)O)[nH]4)cc3)cc2)[nH]1)[C@@H](C)O` [Compound 291], < 1 nM; as for `O=C(N[C@@H](C(=O)N1CCC[C@H]1c1cc(-c2ccc(C#Cc3ccc(-c4cnc([C@@H]5CCCN5C(=O)[C@H](NC(=O)C5CC5)c5ccccc5)[nH]4)cc3)cc2)n[nH]1)c1ccccc1)C1CC1` [Compound 212], < 1 nM.

Staying with this test, now noted: Hepatitis C virus, Huh-7, read-out: Inhibition of HCV genotype 1b.
With `COC(=O)N[C@H](C(=O)N1CCC[C@H]1c1ncc(-c2ccc(C#Cc3ccc(-c4cnc([C@@H]5CN(C(=O)OC)CCN5C(=O)[C@@H](NC(=O)OC)C(C)C)[nH]4)cc3)cc2)[nH]1)C(C)C` [Compound 1204], the EC50 is < 1 nM. As for `[2H]C([2H])([2H])C([2H])(C([2H])([2H])[2H])[C@@]([2H])(NC(=O)OC)C(=O)N1CCC[C@H]1c1nc2ccc(C#Cc3ccc4c(ccc5nc([C@@H]6CCCN6C(=O)[C@@H](NC(=O)OC)C(C)C)[nH]c54)c3)cc2[nH]1` [Compound 1278], the EC50 is < 1 nM. Still for that read-out and setting: as for `COC(=O)N[C@H](C(=O)N1CCC[C@H]1c1nc(C(F)(F)F)c(C#Cc2ccc3cc(-c4cnc([C@@H]5CCCN5C(=O)[C@@H](NC(=O)OC)[C@@H](C)OC)[nH]4)ccc3c2)[nH]1)C1CCCC1` [Compound 1263], the figure is < 1 nM. For `C=CC[C@H](NC(=O)OC)C(=O)N1CCC[C@H]1c1nc2ccc(C#Cc3ccc4c(c3)CCCc3nc([C@@H]5CCCN5C(=O)[C@@H](NC(=O)OC)C(C)C)[nH]c3-4)cc2[nH]1` [Compound 1283], the EC50 was < 1 nM.

For `COC(=O)N[C@H](C(=O)N1CCC[C@H]1c1ncc(-c2ccc3cc(C#Cc4[nH]c([C@@H]5CCCN5C(=O)[C@@H](NC(=O)OC)[C@@H](C)OC)nc4C(F)(F)F)ccc3c2)[nH]1)C1CCCC1` [Compound 1260], the EC50 was < 1 nM. Same read-out and setting: in the case of `COC(=O)N[C@H](C(=O)N1CCC[C@H]1CNC(=O)c1ccc(C#Cc2ccc3nc([C@@H]4CCCN4C(=O)[C@@H](NC(=O)OC)C(C)C)[nH]c3c2)cc1)C(C)C` [Compound 1238] it was < 1 nM; in that of `COC(=O)N[C@H](C(=O)N1CCC[C@H]1c1ncc(-c2ccc3cc(C#Cc4[nH]c([C@@H]5CCCN5C(=O)[C@@H](NC(=O)OC)C(C)C)nc4C#N)ccc3c2)[nH]1)C(C)C` [Compound 1257], < 1 nM.

As to `COC(=O)N[C@@H](C(=O)N1CCN(C(C)=O)C[C@H]1c1ncc(-c2ccc(C#Cc3ccc4nc([C@@H]5CCCN5C(=O)[C@H](NC(=O)OC)c5ccccc5)[nH]c4c3)cc2)[nH]1)c1ccccc1` [Compound 1233], the EC50 is < 1 nM.
